Data as given in US20230234943A1, “TREX1 INHIBITORS AND USES THEREOF” (Tempest Therapeutics, Inc., priority 2020, published 2023).

Target: T1, Human TREX1 enzyme (amino acids 1-242) (Homo sapiens, UniProt Q9NSU2)
T1 construct: Human TREX1 enzyme (amino acids 1-242)
T1 sequence (Q9NSU2 1-242): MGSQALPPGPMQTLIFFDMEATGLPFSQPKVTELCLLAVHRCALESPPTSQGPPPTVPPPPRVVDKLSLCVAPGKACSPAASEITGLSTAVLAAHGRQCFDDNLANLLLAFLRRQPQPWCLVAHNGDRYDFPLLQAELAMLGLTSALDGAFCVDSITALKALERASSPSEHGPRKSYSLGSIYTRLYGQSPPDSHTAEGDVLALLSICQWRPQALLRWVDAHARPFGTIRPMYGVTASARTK
Assay: Human TREX1 enzymatic assay with dsDNA native oligonucleotide (Picogreen fluorescence)
Type: biochemical
Settings: 2 mM dithiothreitol in assay buffer; 50 nM dsDNA oligonucleotide; 30 min preincubation at 25° C.; read-out: TREX1/Human + DTT IC50 AVG
Method: Example A. Human TREX1 Enzymatic Assay with dsDNA Native Oligonucleotide
Human TREX1 enzyme (amino acids 1-242) was diluted in assay buffer (20 mM Tris pH 7.7, 5 mM MgCl2, 0.01% human serum albumin, 0.01% Brij™-35, 2 mM dithiothreitol) to a final concentration of 0.8 nM to 0.16 nM and added to a 96-well low-binding polypropylene plate. Test compounds were diluted in DMSO to 50× concentration (final DMSO concentration in reaction mixture of 2%) and added to the wells with a concentration ranging from 300 μM to 13 nM or 30 μM to 1.5 nM. The reaction mixtures were incubated for 30 minutes at 25° C. and a solution of annealed dsDNA oligonucleotide (5′-[…]-3′ and Comp: 5′-[…]-3′) was added to a final concentration of 50 nM. The reaction mixtures were incubated at 25° C. for 5-15 minutes and subsequently quenched by transferring part of the assay reaction to a solution of 100 mM ethylenediaminetetraacetic acid and 1:100 Picogreen™ (final concentration of […]) in a black plate with an opaque bottom. The fluorescence ([…]) was measured using a Molecular Devices SpectraMax plate reader. Wells containing oligonucleotide but no TREX1 enzyme were used as negative controls. Wells containing oligonucleotide, TREX1 enzyme, and DMSO were used as positive controls.

IC50	SMILES
≤ 0.1 µM	COc1cc(-c2nc3ccc(C(=O)NC4CC(F)(F)C4)cc3n2C2(C)COC2)c(F)c(O)c1O [Example 205, N-(3,3-difluorocyclobutyl)-2-(2-fluoro-3,4-dihydroxy-5-methoxyphenyl)-1-(3-methyloxetan-3-yl)-1H-benzo[d]imidazole-6-carboxamide]
0.1 to 1 µM	COc1ccc2c(c1)nc(-c1cc(OC)c(O)c(O)c1C)n2C1CCC1 [Example 176, 4-(1-cyclobutyl-5-methoxy-1H-1,3-benzodiazol-2-yl)-6-methoxy-3-methylbenzene-1,2-diol]
10 to 100 µM	COc1cc(-c2nc3cc(N4CCN(C(=O)CCCCN)CC4)ccc3n2COCC[Si](C)(C)C)cc(O)c1O [Example 128, 5-amino-1-(4-(2-(3,4-dihydroxy-5-methoxyphenyl)-1-((2-(trimethylsilyl)ethoxy)methyl)-1H-benzo[d]imidazol-5-yl)piperazin-1-yl)pentan-1-one]
> 100 µM	COc1cc(-c2nc3ccccc3n2C2COC2)cc(C(=O)O)c1O [Example 89, 2-hydroxy-3-methoxy-5-(1-(oxetan-3-yl)-1H-benzo[d]imidazol-2-yl)benzoic acid]
1 to 10 µM	COc1c(C)c(-c2nc3cc(N4CCC4)ccc3n2C2CCC2)c(F)c(O)c1O [Example 200, 4-[5-(azetidin-1-yl)-1-cyclobutyl-1H-1,3-benzodiazol-2-yl]-3-fluoro-6-methoxy-5-methylbenzene-1,2-diol]
≤ 0.1 µM	CCCC(=O)Nc1ccc2c(c1)nc(-c1cc(OC)c(O)c(O)c1F)n2C1(C)COC1 [Example 215, N-(2-(2-fluoro-3,4-dihydroxy-5-methoxyphenyl)-1-(3-methyloxetan-3-yl)-1H-benzo[d]imidazol-5-yl)butyramide]
> 100 µM	COc1cc(-c2nc3cc(N4CCOCC4)ccc3[nH]2)cc(O)c1O [Example 25, 3-methoxy-5-(5-morpholino-1H-benzo[d]imidazol-2-yl)benzene-1,2-diol]
≤ 0.1 µM	COc1cc(-c2nc3cc(NC(=O)CCO)ccc3n2C2(C)COC2)c(F)c(O)c1O [Example 224, N-(2-(2-fluoro-3,4-dihydroxy-5-methoxyphenyl)-1-(3-methyloxetan-3-yl)-1H-benzo[d]imidazol-5-yl)-3-hydroxypropanamide]
> 100 µM	COc1cc(-c2nc3cc(N4C[C@H]5CC[C@@H](C4)N5C(=O)c4ccccc4)ccc3[nH]2)cc(O)c1O [Example 136]
10 to 100 µM	COc1cc(-c2nc3ccccc3n2C2COC2)c(C)c(O)c1O [Example 1, 6-methoxy-3-methyl-4-(1-(oxetan-3-yl)-1H-benzo[d]imidazol-2-yl)benzene-1,2-diol]
10 to 100 µM	COc1cc(-c2nc3cc(N4CCN(C(=O)c5cccc(Cl)c5)CC4)ccc3[nH]2)cc(O)c1O [Example 123, (3-chlorophenyl)(4-(2-(3,4-dihydroxy-5-methoxyphenyl)-1H-benzo[d]imidazol-5-yl)piperazin-1-yl)methanone]
0.1 to 1 µM	COc1cc(-c2nc3ccc(CO)cc3n2C2(C)COC2)c(F)c(O)c1O [Example 281, 3-fluoro-4-(6-(hydroxymethyl)-1-(3-methyloxetan-3-yl)-1H-benzo[d]imidazol-2-yl)-6-methoxybenzene-1,2-diol]
10 to 100 µM	COc1cc(-c2nc3ccncc3n2C)c(C)c(O)c1O [Example 54, 6-methoxy-3-methyl-4-(3-methyl-3H-imidazo[4,5-c]pyridin-2-yl)benzene-1,2-diol]
0.1 to 1 µM	COc1cc(-c2nc3cc(N(C)C(C)=O)ccc3n2C2(C)COC2)c(F)c(O)c1O [Example 195]
> 100 µM	COc1cc(-c2nc3ccccc3n2C)cc(O)c1O [Example 10, 3-methoxy-5-(1-methyl-1H-benzo[d]imidazol-2-yl)benzene-1,2-diol]
≤ 0.1 µM	COc1cc(-c2nc3cc(NC(C)=O)ccc3n2C2(C)COC2)c(F)c(O)c1O [Example 312, N-(2-(2-fluoro-3,4-dihydroxy-5-methoxyphenyl)-1-(3-methyloxetan-3-yl)-1H-benzo[d]imidazol-5-yl)acetamide]
> 100 µM	Oc1cc(-c2nc3ccccc3n2C2COC2)c2c(c1O)OCC2 [Example 162, 4-(1-(oxetan-3-yl)-1H-benzo[d]imidazol-2-yl)-2,3-dihydrobenzofuran-6,7-diol]
10 to 100 µM	COc1cc(-c2nc3cc(N4CCOCC4)ccc3[nH]2)cc(C(=O)O)c1O [Example 151, 2-hydroxy-3-methoxy-5-(5-morpholino-1H-benzo[d]imidazol-2-yl)benzoic acid]

IC50	SMILES
> 100 µM	C#CCCC1(CCC(=O)N2CCN(c3ccc4[nH]c(-c5cc(O)c(O)c(OC)c5)nc4c3)CC2)N=N1 [Example 88, 3-(3-(but-3-yn-1-yl)-3H-diazirin-3-yl)-1-(4-(2-(3,4-dihydroxy-5-methoxyphenyl)-1H-benzo[d]imidazol-5-yl)piperazin-1-yl)propan-1-one]
10 to 100 µM	O=C(O)c1cc(-c2nc3ccncc3[nH]2)ccc1O [Example 71, 2-hydroxy-5-(3H-imidazo[4,5-c]pyridin-2-yl)benzoic acid]
> 100 µM	COc1cc(-c2nc3cc(N4CCN(CC(F)(F)F)CC4)ccc3[nH]2)cc(O)c1O [Example 52, 3-methoxy-5-(5-(4-(2,2,2-trifluoroethyl)piperazin-1-yl)-1H-benzo[d]imidazol-2-yl)benzene-1,2-diol]
> 100 µM	COc1cc(-c2nc3cc(N4CCC4)cc(C)c3[nH]2)cc(O)c1O [Example 293, 5-(5-(azetidin-1-yl)-7-methyl-1H-benzo[d]imidazol-2-yl)-3-methoxybenzene-1,2-diol]
> 100 µM	COc1cc(-c2nc3cc(C4CCN(C)CC4)ccc3[nH]2)cc(O)c1O [Example 68, 3-methoxy-5-(5-(1-methylpiperidin-4-yl)-1H-benzo[d]imidazol-2-yl)benzene-1,2-diol]
1 to 10 µM	COc1cc(-c2nc3cc(N4CCN(C(=O)c5ccc(C)cc5)CC4)ccc3[nH]2)cc(O)c1O [Example 98, (4-(2-(3,4-dihydroxy-5-methoxyphenyl)-1H-benzo[d]imidazol-5-yl)piperazin-1-yl)(p-tolyl)methanone]
10 to 100 µM	COc1cc(-c2nc3cc(N4CCC(N(C)C)CC4)ccc3[nH]2)cc(O)c1O [Example 74, 5-(5-(4-(dimethylamino)piperidin-1-yl)-1H-benzo[d]imidazol-2-yl)-3-methoxybenzene-1,2-diol]
1 to 10 µM	COc1cc(-c2nc3cc(N4CCN(S(C)(=O)=O)CC4)ccc3[nH]2)cc(O)c1O [Example 50, 3-methoxy-5-(5-(4-(methylsulfonyl)piperazin-1-yl)-1H-benzo[d]imidazol-2-yl)benzene-1,2-diol]
> 100 µM	COc1cc(-c2nc3cc(F)ccc3[nH]2)c(F)c(O)c1O [Example 231, 3-fluoro-4-(5-fluoro-1H-benzo[d]imidazol-2-yl)-6-methoxybenzene-1,2-diol]
0.1 to 1 µM	COc1cc(-c2nc3cc(N4CCC4=O)ccc3n2C2(C)COC2)c(F)c(O)c1O [Example 272, 1-(2-(2-fluoro-3,4-dihydroxy-5-methoxyphenyl)-1-(3-methyloxetan-3-yl)-1H-benzo[d]imidazol-5-yl)azetidin-2-one]
0.1 to 1 µM	COc1cc(-c2cc3ccccc3n2C2(C)COC2)c(C)c(O)c1O [Example 220]
1 to 10 µM	COc1cc(-c2nc3ncccc3n2C2(C)COC2)c(F)c(O)c1O [Example 326, 3-fluoro-6-methoxy-4-(1-(3-methyloxetan-3-yl)-1H-imidazo[4,5-b]pyridin-2-yl)benzene-1,2-diol]
> 100 µM	COc1cc(-c2nc3cc(S(=O)(=O)Nc4ccccc4)ccc3[nH]2)cc(O)c1O [Example 19, 2-(3,4-dihydroxy-5-methoxyphenyl)-N-phenyl-1H-benzo[d]imidazole-5-sulfonamide]
0.1 to 1 µM	COc1cc(-c2nc3cccc(NC(C)=O)c3n2C2(C)COC2)c(F)c(O)c1O [Example 210, N-[2-(2-fluoro-3,4-dihydroxy-5-methoxyphenyl)-1-(3-methyloxetan-3-yl)-1H-1,3-benzodiazol-7-yl]acetamide]
≤ 0.1 µM	COc1cc(-c2nc3ccc(-c4ccc(F)cn4)cc3n2C2(C)COC2)c(F)c(O)c1O [Example 269, 3-fluoro-4-(6-(5-fluoropyridin-2-yl)-1-(3-methyloxetan-3-yl)-1H-benzo[d]imidazol-2-yl)-6-methoxybenzene-1,2-diol]
10 to 100 µM	COc1cc(-c2nc3cc(N4CCN(C(=O)c5ccccc5)CC4)ccc3[nH]2)c(C(F)(F)F)c(O)c1O [Example 30, (4-(2-(3,4-dihydroxy-5-methoxy-2-(trifluoromethyl)phenyl)-1H-benzo[d]imidazol-5-yl)piperazin-1-yl)(phenyl)methanone]
> 100 µM	COc1cc(-c2nc3cc(N4CCCCC4)ccc3[nH]2)cc(O)c1O [Example 48, 3-methoxy-5-(5-(piperidin-1-yl)-1H-benzo[d]imidazol-2-yl)benzene-1,2-diol]
